Assay results as given in PubChem BioAssay (NCI).
“And” between values parts separate entries of the source, which are not always exact repeats. Identical values can stand only once.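 Assay format: 96-well plates, 48-hour exposure. Abbreviation: GI50, concentration required for 50% inhibition of growth. TGI is the concentration that stops growth completely.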

How the values were obtained:
Test in all cases: NCI-60 cell line screen, 48 h
SR leukemia = system: SR leukemia
ACHN renal = system: ACHN renal
HOP-18 NSCLC = system: HOP-18 NSCLC
UO-31 renal = system: UO-31 renal
NCI-H522 lung = system: NCI-H522 lung
OVCAR-8 ovarian = system: OVCAR-8 ovarian
SK-MEL-2 melanoma = system: SK-MEL-2 melanoma
M14 melanoma = system: M14 melanoma
NCI-H460 lung = system: NCI-H460 lung
RPMI-8226 leukemia = system: RPMI-8226 leukemia
OVCAR-3 ovarian = system: OVCAR-3 ovarian
IGROV1 ovarian = system: IGROV1 ovarian
UACC-257 melanoma = system: UACC-257 melanoma
KM12 colon = system: KM12 colon
SK-OV-3 ovarian = system: SK-OV-3 ovarian
CCRF-CEM leukemia = system: CCRF-CEM leukemia
LXFL 529 NSCLC = system: LXFL 529 NSCLC
HT29 colon = system: HT29 colon
SK-MEL-28 melanoma = system: SK-MEL-28 melanoma
CAKI-1 renal = system: CAKI-1 renal
HOP-92 NSCLC = system: HOP-92 NSCLC
SF-268 CNS = system: SF-268 CNS
EKVX NSCLC = system: EKVX NSCLC
HCC-2998 colon = system: HCC-2998 colon
SN12C renal = system: SN12C renal
SW-620 colon = system: SW-620 colon
UACC-62 melanoma = system: UACC-62 melanoma
HL-60(TB) leukemia = system: HL-60(TB) leukemia
A498 renal = system: A498 renal
U251 CNS = system: U251 CNS
NCI-H23 lung = system: NCI-H23 lung
TK-10 renal = system: TK-10 renal
M19-MEL melanoma = system: M19-MEL melanoma
KM20L2 colon = system: KM20L2 colon
SF-295 CNS = system: SF-295 CNS
LOX IMVI melanoma = system: LOX IMVI melanoma
DMS 273 small cell lung = system: DMS 273 small cell lung
DMS 114 small cell lung = system: DMS 114 small cell lung
A549 NSCLC = system: A549 NSCLC
HCT-116 colon = system: HCT-116 colon
SNB-75 CNS = system: SNB-75 CNS
HOP-62 NSCLC = system: HOP-62 NSCLC
HCT-15 colon = system: HCT-15 colon
XF 498 CNS = system: XF 498 CNS
COLO 205 colon = system: COLO 205 colon
OVCAR-4 ovarian = system: OVCAR-4 ovarian
RXF 393 renal = system: RXF 393 renal
MOLT-4 leukemia = system: MOLT-4 leukemia
K-562 leukemia = system: K-562 leukemia
OVCAR-5 ovarian = system: OVCAR-5 ovarian
SK-MEL-5 melanoma = system: SK-MEL-5 melanoma
NCI-H226 lung = system: NCI-H226 lung
SNB-19 CNS = system: SNB-19 CNS
SF-539 CNS = system: SF-539 CNS
MALME-3M melanoma = system: MALME-3M melanoma
DLD-1 colon = system: DLD-1 colon
786-0 renal = system: 786-0 renal

## CCCCCCCCCCCCC(=O)OC(c1cnco1)c1nc(C(O)CC(O)C(O)C(C)O)co1 (stereo not given)
SR leukemia
  GI50: 0.337 µM
  TGI: 2.5 µM
ACHN renal
  GI50: 6.38 µM
  TGI: > 71.9 µM
HOP-18 NSCLC
  TGI: > 100 µM
UO-31 renal
  GI50: 5.77 µM
  TGI: > 100 µM
NCI-H522 lung
  GI50: 3.18 µM
  TGI: > 25.1 µM
OVCAR-8 ovarian
  GI50: 0.849 µM
  TGI: > 55.7 µM
SK-MEL-2 melanoma
  GI50: 4.79 µM
  TGI: > 66 µM
M14 melanoma
  GI50: 0.794 µM
  TGI: > 63.8 µM
NCI-H460 lung
  GI50: 0.443 µM
  TGI: > 37 µM
RPMI-8226 leukemia
  GI50: 0.694 µM
  TGI: 29.2 µM
OVCAR-3 ovarian
  GI50: 4.61 µM
  TGI: > 100 µM
IGROV1 ovarian
  GI50: 1.71 µM
  TGI: > 100 µM
UACC-257 melanoma
  GI50: 5.16 µM
  TGI: > 83 µM
KM12 colon
  GI50: 0.359 µM
  TGI: 21.9 µM
SK-OV-3 ovarian
  GI50: 4.64 µM
  TGI: > 100 µM
CCRF-CEM leukemia
  GI50: 0.838 µM
  TGI: > 61.5 µM
LXFL 529 NSCLC
  TGI: > 100 µM
HT29 colon
  GI50: 1.1 µM
  TGI: > 100 µM
SK-MEL-28 melanoma
  GI50: 0.686 µM
  TGI: > 64.2 µM
CAKI-1 renal
  GI50: 4.96 µM
  TGI: > 55.3 µM
HOP-92 NSCLC
  GI50: 1.62 µM
  TGI: > 100 µM
SF-268 CNS
  GI50: 4.56 µM
  TGI: > 47.3 µM
EKVX NSCLC
  GI50: 6.56 µM
  TGI: > 100 µM
HCC-2998 colon
  GI50: 1.68 µM
  TGI: > 100 µM
SN12C renal
  GI50: 4.09 µM
  TGI: > 100 µM
SW-620 colon
  GI50: 0.566 µM
  TGI: > 62.7 µM
UACC-62 melanoma
  GI50: 0.896 µM
  TGI: 2.87 µM
HL-60(TB) leukemia
  GI50: 0.544 µM
  TGI: 25.4 µM
A498 renal
  TGI: > 100 µM
U251 CNS
  GI50: 0.72 µM
  TGI: > 62.8 µM
NCI-H23 lung
  GI50: 1.23 µM
  TGI: 25 µM
TK-10 renal
  GI50: 5.04 µM
  TGI: > 76.5 µM
M19-MEL melanoma
  TGI: > 52.7 µM
KM20L2 colon
  TGI: > 48.2 µM
SF-295 CNS
  GI50: 1.52 µM
  TGI: 98.3 µM
LOX IMVI melanoma
  GI50: 0.735 µM
  TGI: > 42.4 µM
DMS 273 small cell lung
  TGI: > 38.6 µM
DMS 114 small cell lung
  TGI: 3.96 µM
A549 NSCLC
  GI50: 0.88 µM
  TGI: > 100 µM
HCT-116 colon
  GI50: 0.459 µM
  TGI: > 100 µM
SNB-75 CNS
  GI50: 2.91 µM
  TGI: 15.9 µM
HOP-62 NSCLC
  TGI: > 100 µM
HCT-15 colon
  TGI: > 100 µM
XF 498 CNS
  TGI: > 100 µM
COLO 205 colon
  GI50: 0.587 µM
  TGI: 1.98 µM and 3.52 µM
OVCAR-4 ovarian
  GI50: 2.02 µM
  TGI: 91.5 µM
RXF 393 renal
  GI50: 0.486 µM
  TGI: 64.2 µM
MOLT-4 leukemia
  GI50: 0.537 µM
  TGI: 5.14 µM
K-562 leukemia
  GI50: 0.426 µM
  TGI: > 100 µM
OVCAR-5 ovarian
  TGI: > 100 µM
SK-MEL-5 melanoma
  GI50: 1.45 µM
  TGI: 9.66 µM and 6.95 µM
NCI-H226 lung
  GI50: 0.28 µM
SNB-19 CNS
  TGI: > 100 µM
SF-539 CNS
  GI50: 3.73 µM
  TGI: > 100 µM
MALME-3M melanoma
  GI50: 3.61 µM
  TGI: > 100 µM
DLD-1 colon
  TGI: > 100 µM
786-0 renal
  GI50: 1.02 µM
  TGI: > 100 µM
